Counter-ions that a name gives are not always drawn.

One test concerns the target T1, c-Kit(V654A) (Homo sapiens, UniProt P10721, V654A).
T1 construct: amino acids 544-end containing the V654A mutation; GST (N)
In words: c-Kit(V654A) assay. The conditions noted are these: recombinant human c-Kit aa 544-end, 200 μM ATP, 1.4E-06 means 1.4×10^−6, read-out: Inhibition (IC50) of c-KIT (V654A). Format: biochemical. The method in brief: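 Radiometric filter-binding read-out: substrate 33P incorporation counted by scintillation after P30 filtermat washes in 75 mM phosphoric acid and methanol. Enzyme: N-GST recombinant human c-Kit aa 544-end carrying V654A.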

A further test concerns the target T2, PDGFRalpha(V561D) (Homo sapiens, UniProt P16234, V561D).
T2 construct: recombinant human PDGFRalpha, amino acids 550end containing the V561 D mutation; 6His (N)
In words: PDGFRalpha(V561D) assay. Format: biochemical. The settings on record: recombinant human PDGFRalpha aa 550-end, 200 μM ATP, 1.4E-06 means 1.4×10^−6, read-out: Inhibition (IC50) of PDGFRα (V561D). In short, it runs like this: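 Radiometric filter-binding assay: substrate phosphorylation by recombinant N-His-tagged human PDGFRα 550-end V561D was quenched with 3% phosphoric acid after 40 min at room temperature, then counted.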

T1 sequence (P10721 544-976 V654A): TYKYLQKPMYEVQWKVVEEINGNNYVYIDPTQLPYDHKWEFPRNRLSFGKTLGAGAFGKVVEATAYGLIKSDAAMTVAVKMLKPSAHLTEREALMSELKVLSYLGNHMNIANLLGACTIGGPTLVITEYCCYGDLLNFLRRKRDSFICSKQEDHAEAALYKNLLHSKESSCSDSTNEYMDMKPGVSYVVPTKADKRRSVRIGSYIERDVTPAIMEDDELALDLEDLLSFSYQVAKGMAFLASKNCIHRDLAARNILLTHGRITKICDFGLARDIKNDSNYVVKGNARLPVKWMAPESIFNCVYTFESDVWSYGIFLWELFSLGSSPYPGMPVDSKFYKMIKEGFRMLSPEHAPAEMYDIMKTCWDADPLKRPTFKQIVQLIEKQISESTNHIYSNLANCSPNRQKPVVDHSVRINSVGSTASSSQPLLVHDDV
T2 sequence (P16234 550-1089 V561D): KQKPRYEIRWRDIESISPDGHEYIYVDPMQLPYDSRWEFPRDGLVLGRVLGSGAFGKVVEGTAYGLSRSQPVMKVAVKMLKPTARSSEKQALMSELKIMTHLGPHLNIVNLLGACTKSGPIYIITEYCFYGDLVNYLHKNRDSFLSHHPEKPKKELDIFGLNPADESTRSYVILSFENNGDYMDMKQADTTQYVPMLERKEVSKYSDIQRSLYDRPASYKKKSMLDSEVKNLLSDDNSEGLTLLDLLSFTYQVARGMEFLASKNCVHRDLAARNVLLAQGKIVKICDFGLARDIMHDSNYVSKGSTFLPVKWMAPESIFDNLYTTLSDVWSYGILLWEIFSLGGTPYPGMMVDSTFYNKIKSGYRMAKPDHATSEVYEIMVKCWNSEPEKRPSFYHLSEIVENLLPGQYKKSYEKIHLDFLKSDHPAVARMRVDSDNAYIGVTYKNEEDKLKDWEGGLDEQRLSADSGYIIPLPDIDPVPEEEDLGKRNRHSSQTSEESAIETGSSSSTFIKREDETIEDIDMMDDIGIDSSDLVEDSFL

Take `CN1CCN(C(=O)c2ccc(-n3cc(-c4cc5c(F)cccc5[nH]c4=O)nn3)cc2)CC1` [A149, 5-fluoro-3-{1-[4-(4-methyl-piperazine-1-carbonyl)-phenyl]-1H-[1,2,3]triazol-4-yl}-1H-quinolin-2-one]: the IC50 on c-Kit(V654A) was found to be 0.006 µM; at PDGFRalpha(V561D), 0.012 µM.
For `O=C(c1ccc(-n2cc(-c3cc4cc(F)c(F)cc4[nH]c3=O)nn2)cc1)N1CCNCC1` [A128, 6,7-difluoro-3-{1-[4-(piperazine-1-carbonyl)-phenyl]-1H-[1,2,3]triazol-4-yl}-1H-quinolin-2-one] the same measures were 0.041 µM and 0.0097 µM.
For `NC(=O)[C@H]1CCCN1C(=O)c1ccc(-n2cc(-c3cc4cc(F)ccc4[nH]c3=O)nn2)cc1` [A262, (R)-1-{4-[4-(6-fluoro-2-oxo-1,2-dihydro-quinolin-3-yl)-[1,2,3]triazol-1-yl]-benzoyl}-pyrrolidine-2-carboxylic acid amide] the same measures were 0.094 µM and 0.11 µM.
For the molecule `N[C@@H]1CCN(C(=O)c2ccc(-n3cc(-c4cc5cc(F)ccc5[nH]c4=O)nn3)cc2)C1` [A313, 3-{1-[4-((R)-3-amino-pyrrolidine-1-carbonyl)-phenyl]-1H-[1,2,3]triazol-4-yl}-6-fluoro-1H-quinolin-2-one hydrochloride], the results for the IC50 on c-Kit(V654A) and on PDGFRalpha(V561D) were 0.026 µM and 0.33 µM, respectively.
On the same counts, the results for `Cc1cc(-n2cc(-c3cc4ccccc4[nH]c3=O)nn2)ccc1C(=O)N1CCOCC1` [A40, 3-{1-[3-methyl-4-(morpholine-4-carbonyl)-phenyl]-1H-[1,2,3]triazol-4-yl}-1H-quinolin-2-one] are 0.026 µM and 0.007 µM.
In the case of `CN1CCN(C(=O)c2ccc(-n3cc(-c4cc5ccccc5[nH]c4=O)nn3)cc2)CC1` [A57, 3-{1-[4-(4-methyl-piperazine-1-carbonyl)-phenyl]-1H-[1,2,3]triazol-4-yl}-1H-quinolin-2-one], the concentration for half-maximal inhibition (IC50) at c-Kit(V654A) is 0.015 µM; at PDGFRalpha(V561D), 0.006 µM.
On the same counts, the results for `CN1CCN(C(=O)c2ccc(-n3cc(-c4cc5c(F)cc(F)cc5[nH]c4=O)nn3)cc2)CC1=O` [A95, 5,7-difluoro-3-{1-[4-(4-methyl-3-oxo-piperazine-1-carbonyl)-phenyl]-1H-[1,2,3]triazol-4-yl}-1H-quinolin-2-one] are 0.009 µM and 0.37 µM.
For `O=C(c1ccc(-n2cc(-c3cc4cc(Cl)ccc4[nH]c3=O)nn2)cc1)N1CC[C@@H](F)C1` [A270, 6-chloro-3-{1-[4-((R)-3-fluoro-pyrrolidine-1-carbonyl)-phenyl]-1H-[1,2,3]triazol-4-yl}-1H-quinolin-2-one] the same measures were 0.026 µM and 0.0002 µM.
For `O=C(c1ccc(-n2cc(-c3cc4cc(F)cnc4[nH]c3=O)nn2)cc1)N1CCOCC1` [A31, 6-fluoro-3-{1-[4-(morpholine-4-carbonyl)-phenyl]-1H-[1,2,3]triazol-4-yl}-1H-[1,8]naphthyridin-2-one], the results for the IC50 on c-Kit(V654A) and on PDGFRalpha(V561D) were 0.099 µM and 0.013 µM, respectively.
Regarding `O=C(c1ccc(-n2cc(-c3cc4cc(F)ccc4[nH]c3=O)nn2)cc1)N1CCCC(O)C1` (stereo not shown) [A184, 6-fluoro-3-{1-[4-(3-hydroxy-piperidine-1-carbonyl)-phenyl]-1H-[1,2,3]triazol-4-yl}-1H-quinolin-2-one], the IC50 stood at 0.018 µM on c-Kit(V654A) and 0.011 µM at PDGFRalpha(V561D).
On to `CN(C)C1CCN(C(=O)c2ccc(-n3cc(-c4cc5cc(F)ccc5[nH]c4=O)nn3)cc2)C1` (stereo not shown) [A207, 3-{1-[4-(3-dimethylamino-pyrrolidine-1-carbonyl)-phenyl]-1H-[1,2,3]triazol-4-yl}-6-fluoro-1H-quinolin-2-one], for which the IC50 was determined as 0.052 µM on c-Kit(V654A) and 0.31 µM on PDGFRalpha(V561D).
For the molecule `CN1CCN(C(=O)c2ccc(-n3cc(-c4cc5c(F)c(F)ccc5[nH]c4=O)nn3)cc2)CC1` [A156, 5,6-difluoro-3-{1-[4-(4-methyl-piperazine-1-carbonyl)-phenyl]-1H-[1,2,3]triazol-4-yl}-1H-quinolin-2-one], the IC50 on c-Kit(V654A) amounted to 0.026 µM; at PDGFRalpha(V561D) it was 0.04 µM.
Turning to `O=C1COCCN1c1ccc(-n2cc(-c3cc4ccccc4[nH]c3=O)nn2)cc1F` [A32, 3-{1-[3-fluoro-4-(3-oxo-morpholin-4-yl)-phenyl]-1H-[1,2,3]triazol-4-yl}-1H-quinolin-2-one], the results for the IC50 on c-Kit(V654A) and on PDGFRalpha(V561D) were 0.064 µM and 0.011 µM, respectively.
As for `O=C(c1ccc(-n2cc(-c3cc4cc(F)ccc4[nH]c3=O)nn2)cc1)N1CCOC[C@@H]1CO` [A216, 6-fluoro-3-{1-[4-((S)-3-hydroxymethyl-morpholine-4-carbonyl)-phenyl]-1H-[1,2,3]triazol-4-yl}-1H-quinolin-2-one], the values for the IC50 at c-Kit(V654A) and on PDGFRalpha(V561D) were 0.052 µM and 0.029 µM, respectively.
For `O=C(c1ccc(-n2cc(-c3cc4cncnc4[nH]c3=O)nn2)cc1)N1CCOCC1` [A94, 6-{1-[4-(Morpholine-4-carbonyl)-phenyl]-1H-[1,2,3]triazol-4-yl}-8H-pyrido[2,3-d]pyrimidin-7-one] the same measures were 3.6 µM and 2.3 µM.
Turning to `O=c1[nH]c2ccccc2cc1-c1cn(-c2ccc3nc[nH]c3c2)nn1` [A28, 3-[1-(3H-benzimidazol-5-yl)-1H-[1,2,3]triazol-4-yl]-1H-quinolin-2-one], the values for the IC50 at c-Kit(V654A) and on PDGFRalpha(V561D) were 0.036 µM and 0.029 µM, respectively.
On the same counts, the results for `CN1CCN(C(=O)c2ccc(-n3cc(-c4cc5cc(F)ccc5[nH]c4=O)nn3)cc2)CC1` [A56, 6-fluoro-3-{1-[4-(4-methyl-piperazine-1-carbonyl)-phenyl]-1H-[1,2,3]triazol-4-yl}-1H-quinolin-2-one] are 0.007 µM and 0.005 µM.
For `O=C(NCCN1CCOCC1)c1ccc(-n2cc(-c3cc4ccccc4[nH]c3=O)nn2)cc1` [A21, N-(2-morpholin-4-yl-ethyl)-4-[4-(2-oxo-1,2-dihydro-quinolin-3-yl)-[1,2,3]triazol-1-yl]-benzamide] the same measures were 0.079 µM and 0.032 µM.
For `O=C(c1ccc(-n2cc(-c3cc4cc(F)ccc4[nH]c3=O)nn2)cc1)N1CCCC2(COC2)C1` [A228, 6-fluoro-3-{1-[4-(2-oxa-6-aza-spiro[3.5]nonane-6-carbonyl)-phenyl]-1H-[1,2,3]triazol-4-yl}-1H-quinolin-2-one] the same measures were 0.074 µM and 0.3 µM.
For the molecule `CO[C@@H]1CN(C(=O)c2ccc(-n3cc(-c4cc5cc(F)ccc5[nH]c4=O)nn3)cc2)C[C@H]1OC` [A263, 3-{1-[4-((3R,4R)-3,4-dimethoxy-pyrrolidine-1-carbonyl)-phenyl]-1H-[1,2,3]triazol-4-yl}-6-fluoro-1H-quinolin-2-one], the IC50 worked out at 0.094 µM on c-Kit(V654A) and 0.00091 µM on PDGFRalpha(V561D).
For `O=C1COCCN1c1ccc(-n2cc(-c3cc4cc(F)ccc4[nH]c3=O)nn2)cc1F` [A33, 6-fluoro-3-{1-[3-fluoro-4-(3-oxo-morpholin-4-yl)-phenyl]-1H-[1,2,3]triazol-4-yl}-1H-quinolin-2-one] the same measures were 0.02 µM and 0.003 µM.
For `CN(C)C[C@@H]1CCCN1C(=O)c1ccc(-n2cc(-c3cc4cc(Cl)ccc4[nH]c3=O)nn2)cc1` [A318, 6-chloro-3-{1-[4-((S)-2-dimethylaminomethyl-pyrrolidine-1-carbonyl)-phenyl]-1H-[1,2,3]triazol-4-yl}-1H-quinolin-2-one] the same measures were 0.02 µM and 0.017 µM.
On the same counts, the results for `CC(=O)N(C)c1ccc(-n2cc(-c3cc4cc(F)c(F)cc4[nH]c3=O)nn2)cc1` [A352, N-{4-[4-(6,7-difluoro-2-oxo-1,2-dihydro-quinolin-3-yl)-[1,2,3]triazol-1-yl]-phenyl}-N-methyl-acetamide] are 0.26 µM and 0.44 µM.
Turning to `O=C(c1ccc(-n2cc(-c3cc4cc(F)c(F)cc4[nH]c3=O)nn2)cc1)N1CCC(OCCN2CCOCC2)C1` (stereo not shown) [A221, 6,7-difluoro-3-(1-{4-[3-(2-morpholin-4-yl-ethoxy)-pyrrolidine-1-carbonyl]-phenyl}-1H-[1,2,3]triazol-4-yl)-1H-quinolin-2-one], the IC50 on c-Kit(V654A) was found to be 0.2 µM; on PDGFRalpha(V561D), 0.38 µM.
On the same counts, the results for `O=C(c1ccc(-n2cc(-c3cc4c(F)cccc4[nH]c3=O)nn2)cc1)N1CCNCC1` [A119, 5-fluoro-3-{1-[4-(piperazine-1-carbonyl)-phenyl]-1H-[1,2,3]triazol-4-yl}-1H-quinolin-2-one] are 0.009 µM and 0.046 µM.
On the same counts, the results for `O=c1[nH]c2ccc(F)cc2cc1-c1cn(-c2ccc(OCCC3CCNCC3)cc2)nn1` [A133, 6-fluoro-3-{1-[4-(2-piperidin-4-yl-ethoxy)-phenyl]-1H-[1,2,3]triazol-4-yl}-1H-quinolin-2-one] are 0.011 µM and 0.0064 µM.
Regarding `NC1CCN(C(=O)c2ccc(-n3cc(-c4cc5cc(F)ccc5[nH]c4=O)nn3)cc2)C1` (stereo in doubt) [A306, 3-{1-[4-((S)-3-amino-pyrrolidine-1-carbonyl)-phenyl]-1H-[1,2,3]triazol-4-yl}-6-fluoro-1H-quinolin-2-one], the IC50 on c-Kit(V654A) came out at 0.045 µM; at PDGFRalpha(V561D) it was 0.24 µM.
For `CN1CCN(c2ncc(-n3cc(-c4cc5ccccc5[nH]c4=O)nn3)cn2)CC1` [A66, 3-{1-[2-(4-methyl-piperazin-1-yl)-pyrimidin-5-yl]-1H-[1,2,3]triazol-4-yl}-1H-quinolin-2-one] the same measures were 0.64 µM and 0.19 µM.
Regarding `COc1cc(-n2cc(-c3cc4ccccc4[nH]c3=O)nn2)cc(OC)c1OC` [A38, 3-[1-(3,4,5-trimethoxy-phenyl)-1H-[1,2,3]triazol-4-yl]-1H-quinolin-2-one], the IC50 worked out at 3.2 µM on c-Kit(V654A) and 0.58 µM on PDGFRalpha(V561D).

For orientation: IC50 means the concentration needed to halve the response being measured.

For the origin of these results see patent US11939314B2, “Quinolin-2-one derivatives” (MERCK PATENT GMBH, priority 2016, dated 2024).
